Reference: ChEMBL document CHEMBL5465560, “Selectivity Literature for EUbOPEN Chemogenomic Library” (2024)

Experiments:
[1] = target: T1, Aurora kinase A (Homo sapiens) (UniProt O14965); assay: Selectivity interaction (KinomeScan (DiscoverX)) EUB0000595a STK6; details: at 10 µM
T1 sequence (whole entry): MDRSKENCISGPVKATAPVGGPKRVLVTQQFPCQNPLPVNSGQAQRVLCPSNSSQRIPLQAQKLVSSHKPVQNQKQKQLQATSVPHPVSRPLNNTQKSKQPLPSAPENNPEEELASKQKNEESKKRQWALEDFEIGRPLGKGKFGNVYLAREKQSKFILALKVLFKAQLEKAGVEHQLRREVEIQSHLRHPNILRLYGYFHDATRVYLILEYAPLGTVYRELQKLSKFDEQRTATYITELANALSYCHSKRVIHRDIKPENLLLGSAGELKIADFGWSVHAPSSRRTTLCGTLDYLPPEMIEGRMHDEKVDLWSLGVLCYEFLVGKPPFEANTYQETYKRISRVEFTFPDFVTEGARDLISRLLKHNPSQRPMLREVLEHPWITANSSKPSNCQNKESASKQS

[2] = target: Mitogen-activated protein kinase 14 (Homo sapiens, UniProt Q16539); details: at 10 µM
[3] = target: Tyrosine-protein kinase Lck (Homo sapiens, UniProt P06239); details: at 3 µM
[4] = system: Phosphatidylinositol 4,5-bisphosphate 3-kinase catalytic subunit alpha isoform (Homo sapiens), P42336 [H1047Y]; details: at 10 µM
[5] = target: T2, Activin receptor type-1 (Homo sapiens) (UniProt Q04771); assay: Selectivity interaction (KinomeScan (DiscoverX)) EUB0000618a ACVR1; details: at 10 µM
T2 sequence (whole entry): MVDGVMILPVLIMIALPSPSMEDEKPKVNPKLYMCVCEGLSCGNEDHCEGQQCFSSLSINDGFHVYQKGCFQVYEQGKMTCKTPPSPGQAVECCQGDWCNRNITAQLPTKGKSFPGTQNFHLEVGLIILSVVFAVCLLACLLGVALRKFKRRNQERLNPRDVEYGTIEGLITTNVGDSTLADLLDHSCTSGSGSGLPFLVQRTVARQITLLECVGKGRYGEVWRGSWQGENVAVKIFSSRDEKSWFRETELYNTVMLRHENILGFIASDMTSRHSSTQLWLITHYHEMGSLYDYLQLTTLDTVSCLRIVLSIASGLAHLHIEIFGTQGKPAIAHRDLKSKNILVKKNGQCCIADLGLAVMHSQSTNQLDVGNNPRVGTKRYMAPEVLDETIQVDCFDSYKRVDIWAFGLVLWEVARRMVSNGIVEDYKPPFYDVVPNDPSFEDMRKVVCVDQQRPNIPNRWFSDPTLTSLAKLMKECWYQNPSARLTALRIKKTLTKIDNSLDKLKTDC

[6] = target: Rho-associated protein kinase 2 (Homo sapiens, UniProt O75116); assay: Selectivity interaction (Kinase panel (Invitrogen)) EUB0000639a ROCK2; details: at 200 nM
[7] = target: T3, Serine/threonine-protein kinase DCLK2 (Homo sapiens) (UniProt Q8N568); assay: Selectivity interaction (KinomeScan (DiscoverX)) EUB0000655a DCLK2; details: at 10 µM
T3 sequence (whole entry): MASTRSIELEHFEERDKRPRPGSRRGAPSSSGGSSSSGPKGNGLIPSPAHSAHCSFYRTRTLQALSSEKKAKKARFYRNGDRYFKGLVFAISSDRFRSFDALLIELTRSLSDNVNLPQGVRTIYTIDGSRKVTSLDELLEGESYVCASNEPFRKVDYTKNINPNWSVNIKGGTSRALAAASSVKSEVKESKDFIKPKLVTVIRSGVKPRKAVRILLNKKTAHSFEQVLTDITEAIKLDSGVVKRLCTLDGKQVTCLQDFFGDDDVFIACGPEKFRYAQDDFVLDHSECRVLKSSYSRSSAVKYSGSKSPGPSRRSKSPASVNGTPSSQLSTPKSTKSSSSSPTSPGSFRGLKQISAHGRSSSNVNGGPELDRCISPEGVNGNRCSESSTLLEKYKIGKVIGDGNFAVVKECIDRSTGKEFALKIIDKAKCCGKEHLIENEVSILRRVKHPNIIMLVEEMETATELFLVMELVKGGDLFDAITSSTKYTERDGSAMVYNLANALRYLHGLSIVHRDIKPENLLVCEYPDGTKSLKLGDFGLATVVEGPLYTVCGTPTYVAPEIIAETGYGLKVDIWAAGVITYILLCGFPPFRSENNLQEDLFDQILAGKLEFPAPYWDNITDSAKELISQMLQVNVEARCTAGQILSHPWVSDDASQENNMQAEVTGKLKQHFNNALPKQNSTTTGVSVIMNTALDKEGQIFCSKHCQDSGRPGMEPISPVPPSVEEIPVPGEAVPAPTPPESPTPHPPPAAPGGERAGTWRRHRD

[8] = target: T4, TGF-beta receptor type-1 (Homo sapiens) (UniProt P36897); assay: Selectivity interaction (Ambit KINOMEscan and KiNATiv profiling in Jurkat cells) EUB0000090b TGFBR1; type: cell-based; details: at 1 µM
T4 sequence (whole entry): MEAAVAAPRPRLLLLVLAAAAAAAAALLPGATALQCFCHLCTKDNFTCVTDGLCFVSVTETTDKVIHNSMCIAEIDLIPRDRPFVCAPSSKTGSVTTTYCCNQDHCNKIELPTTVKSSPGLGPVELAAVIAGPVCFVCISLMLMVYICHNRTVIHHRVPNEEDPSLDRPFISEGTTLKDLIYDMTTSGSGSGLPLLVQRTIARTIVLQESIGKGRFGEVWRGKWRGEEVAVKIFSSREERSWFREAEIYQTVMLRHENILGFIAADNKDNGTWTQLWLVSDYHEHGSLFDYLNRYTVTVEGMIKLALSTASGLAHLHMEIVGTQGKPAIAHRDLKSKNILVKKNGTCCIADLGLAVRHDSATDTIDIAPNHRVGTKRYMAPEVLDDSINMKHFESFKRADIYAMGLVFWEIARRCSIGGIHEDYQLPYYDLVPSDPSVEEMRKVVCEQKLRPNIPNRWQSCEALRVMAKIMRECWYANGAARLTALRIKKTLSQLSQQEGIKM

Chain of Mitogen-activated protein kinase 14 (Q16539 whole entry): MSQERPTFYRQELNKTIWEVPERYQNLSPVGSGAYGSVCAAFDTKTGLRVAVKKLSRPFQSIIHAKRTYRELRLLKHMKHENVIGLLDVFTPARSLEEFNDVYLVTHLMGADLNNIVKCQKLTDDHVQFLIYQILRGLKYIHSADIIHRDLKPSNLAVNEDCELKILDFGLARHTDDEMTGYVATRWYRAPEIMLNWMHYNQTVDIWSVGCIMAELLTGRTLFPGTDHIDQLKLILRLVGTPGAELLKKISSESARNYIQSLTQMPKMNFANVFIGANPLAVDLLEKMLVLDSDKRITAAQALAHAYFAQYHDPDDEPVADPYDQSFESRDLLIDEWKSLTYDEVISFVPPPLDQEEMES
Chain of Rho-associated protein kinase 2 (O75116 whole entry, looked up): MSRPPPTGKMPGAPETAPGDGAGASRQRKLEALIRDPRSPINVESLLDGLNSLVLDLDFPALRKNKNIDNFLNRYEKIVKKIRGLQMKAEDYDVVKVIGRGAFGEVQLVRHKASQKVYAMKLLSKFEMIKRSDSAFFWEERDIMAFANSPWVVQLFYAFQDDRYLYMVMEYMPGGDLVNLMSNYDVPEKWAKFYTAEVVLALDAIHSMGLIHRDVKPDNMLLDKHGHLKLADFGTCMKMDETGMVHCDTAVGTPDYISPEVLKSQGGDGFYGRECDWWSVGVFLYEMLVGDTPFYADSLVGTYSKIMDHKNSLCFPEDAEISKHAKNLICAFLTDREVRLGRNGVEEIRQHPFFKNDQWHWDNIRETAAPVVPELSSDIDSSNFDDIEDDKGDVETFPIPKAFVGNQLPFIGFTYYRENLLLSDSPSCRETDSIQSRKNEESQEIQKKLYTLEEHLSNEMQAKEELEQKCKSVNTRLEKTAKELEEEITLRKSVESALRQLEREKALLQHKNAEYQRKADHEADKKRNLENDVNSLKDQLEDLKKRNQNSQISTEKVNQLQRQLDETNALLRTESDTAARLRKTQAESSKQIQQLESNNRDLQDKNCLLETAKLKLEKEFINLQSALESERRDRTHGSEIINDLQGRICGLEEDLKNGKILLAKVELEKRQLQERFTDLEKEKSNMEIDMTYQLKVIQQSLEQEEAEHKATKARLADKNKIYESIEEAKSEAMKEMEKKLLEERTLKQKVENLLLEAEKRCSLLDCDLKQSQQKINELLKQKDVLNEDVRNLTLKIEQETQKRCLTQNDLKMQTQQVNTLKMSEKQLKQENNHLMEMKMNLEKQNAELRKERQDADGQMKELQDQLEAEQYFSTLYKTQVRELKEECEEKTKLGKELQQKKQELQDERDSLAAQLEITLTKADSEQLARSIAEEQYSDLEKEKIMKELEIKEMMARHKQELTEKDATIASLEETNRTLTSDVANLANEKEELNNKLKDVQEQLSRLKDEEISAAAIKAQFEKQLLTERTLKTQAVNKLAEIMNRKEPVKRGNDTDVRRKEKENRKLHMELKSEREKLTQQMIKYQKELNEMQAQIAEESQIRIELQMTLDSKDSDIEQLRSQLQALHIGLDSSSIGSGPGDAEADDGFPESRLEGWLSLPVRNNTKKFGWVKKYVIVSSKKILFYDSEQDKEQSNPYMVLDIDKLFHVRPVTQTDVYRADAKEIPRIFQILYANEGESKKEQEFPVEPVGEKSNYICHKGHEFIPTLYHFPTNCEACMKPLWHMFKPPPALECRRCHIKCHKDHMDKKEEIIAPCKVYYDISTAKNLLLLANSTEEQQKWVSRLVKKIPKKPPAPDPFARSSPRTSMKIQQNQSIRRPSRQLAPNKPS
Chain of Phosphatidylinositol 4,5-bisphosphate 3-kinase catalytic subunit alpha isoform (Homo sapiens), P42336 [H1047Y] (P42336 whole entry H1047Y, canonical isoform): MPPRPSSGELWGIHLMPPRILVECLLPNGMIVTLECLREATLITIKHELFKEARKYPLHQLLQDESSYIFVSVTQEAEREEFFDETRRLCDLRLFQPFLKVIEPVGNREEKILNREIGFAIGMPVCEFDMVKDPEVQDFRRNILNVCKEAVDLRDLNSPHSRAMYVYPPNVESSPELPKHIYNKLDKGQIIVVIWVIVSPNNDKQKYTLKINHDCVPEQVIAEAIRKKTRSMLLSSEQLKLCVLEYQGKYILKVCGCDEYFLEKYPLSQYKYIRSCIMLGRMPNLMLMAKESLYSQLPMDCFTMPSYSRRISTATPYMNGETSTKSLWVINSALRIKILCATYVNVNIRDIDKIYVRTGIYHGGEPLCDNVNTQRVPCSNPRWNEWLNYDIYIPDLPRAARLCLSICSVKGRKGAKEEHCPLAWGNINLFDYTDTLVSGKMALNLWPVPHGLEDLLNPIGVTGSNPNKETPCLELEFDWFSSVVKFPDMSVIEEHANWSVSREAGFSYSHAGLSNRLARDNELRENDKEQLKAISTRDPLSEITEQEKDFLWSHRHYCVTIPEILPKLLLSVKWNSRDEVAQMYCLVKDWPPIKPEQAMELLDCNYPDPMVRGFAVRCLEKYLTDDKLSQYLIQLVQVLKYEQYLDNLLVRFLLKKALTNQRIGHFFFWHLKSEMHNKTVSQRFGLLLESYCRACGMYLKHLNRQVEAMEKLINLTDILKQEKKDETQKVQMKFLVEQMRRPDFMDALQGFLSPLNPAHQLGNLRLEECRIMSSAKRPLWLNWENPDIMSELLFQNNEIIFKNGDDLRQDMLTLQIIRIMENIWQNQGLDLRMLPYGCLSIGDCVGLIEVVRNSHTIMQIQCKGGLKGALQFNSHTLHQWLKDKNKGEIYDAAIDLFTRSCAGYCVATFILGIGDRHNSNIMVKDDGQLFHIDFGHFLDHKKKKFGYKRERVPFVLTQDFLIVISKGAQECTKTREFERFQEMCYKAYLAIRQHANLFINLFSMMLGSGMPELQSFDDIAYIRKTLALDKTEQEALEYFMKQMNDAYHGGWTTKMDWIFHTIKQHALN
Chain of Tyrosine-protein kinase Lck (P06239 2-509 limits assumed): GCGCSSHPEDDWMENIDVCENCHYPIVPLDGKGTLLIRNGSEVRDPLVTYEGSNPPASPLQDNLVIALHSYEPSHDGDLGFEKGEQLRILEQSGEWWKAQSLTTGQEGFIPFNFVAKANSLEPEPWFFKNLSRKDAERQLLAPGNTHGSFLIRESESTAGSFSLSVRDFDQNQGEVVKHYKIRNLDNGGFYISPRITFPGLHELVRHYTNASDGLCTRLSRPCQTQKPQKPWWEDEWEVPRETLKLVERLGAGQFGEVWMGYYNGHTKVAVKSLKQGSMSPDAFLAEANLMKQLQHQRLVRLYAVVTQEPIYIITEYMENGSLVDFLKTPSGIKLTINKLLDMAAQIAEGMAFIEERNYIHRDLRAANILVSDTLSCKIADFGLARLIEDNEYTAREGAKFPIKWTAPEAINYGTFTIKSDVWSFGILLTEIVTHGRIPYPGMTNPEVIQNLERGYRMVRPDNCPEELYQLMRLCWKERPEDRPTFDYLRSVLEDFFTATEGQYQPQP

## COCC(=O)NC/C=C/c1ccc2ncnc(Nc3ccc(Oc4ccc(C)nc4)c(C)c3)c2c1 [CP-724714]
[1]
  % of control: 100%

## Cc1cc([C@@H](C)Nc2ccccc2C(=O)O)c2nc(N3CCOCC3)cc(=O)n2c1 [AZD-6482]
[2]
  % of control: 97%

## CCc1cc(Nc2nccc(-c3c(-c4ccc(OC)c(C(=O)Nc5c(F)cccc5F)c4)nc4ccccn34)n2)c(OC)cc1N1CCC(N2CCN(S(C)(=O)=O)CC2)CC1
[3]
  % of inhibition: 47%

## CNC(=O)Nc1ccc(-c2nc(N3CC4CCC(C3)O4)c3cnn(C4CCC5(CC4)OCCO5)c3n2)cc1
[4]
  % of control: 9.6%

## O[C@H]1CC[C@H](Nc2ncc3nc(Nc4c(F)cc(F)cc4F)n([C@H]4CCOC4)c3n2)CC1
[5]
  % of control: 100%

## CC[C@@H]1[C@H](F)C(=O)N[C@@H]1COc1nccc2cc(C(N)=O)c(OC)cc12 [ZIMLOVISERTIB]
[6]
  % of inhibition: 18.6%

## CN(C)CCOc1ccc(-c2nc(-c3ccncc3)c(-c3ccc4c(c3)CC/C4=N\O)[nH]2)cc1
[7]
  % of control: 100%

## CN(C)C/C=C/C(=O)Nc1ccc(C(=O)N2CCCC(Nc3ncc(Cl)c(-c4c[nH]c5ccccc45)n3)C2)cc1 (stereo not drawn)
[8]
  % of control: 87%
